Test results published in patent publication US10920265B2, “Compounds and methods for detection of enzymes that remove methyl succinyl groups from epsilon-amino lysine moieties” (Enzo Life Sciences, Inc., priority 2011, dated 2021).
*: point of attachment. AMC = Cc1cc(=O)oc2cc(N*)ccc12

Tests used:
[1] = target: T1, SIRT5 (Homo sapiens, UniProt Q9NXA8); conditions: high and uncertain; maximum substrate concentration of 5 mM; read-out: Km estimate; cited from earlier work
T1 sequence (Q9NXA8 37-310): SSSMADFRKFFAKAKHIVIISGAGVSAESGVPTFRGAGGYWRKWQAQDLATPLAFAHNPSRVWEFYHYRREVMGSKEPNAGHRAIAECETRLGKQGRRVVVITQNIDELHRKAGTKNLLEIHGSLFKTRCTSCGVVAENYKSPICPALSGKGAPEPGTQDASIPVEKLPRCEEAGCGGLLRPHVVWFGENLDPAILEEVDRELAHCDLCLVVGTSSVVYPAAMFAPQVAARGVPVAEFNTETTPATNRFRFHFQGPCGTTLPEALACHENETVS

[2] = target: T2, bovine pancreatic trypsin (Bos taurus, UniProt P00760); test: Trypsin release of AMC from lysyl-AMC compounds; type: biochemical; conditions: 1 μM compound, trypsin 2 mg/ml, room temperature
T2 construct: purchased ENZO Life Sciences BML-KI105 or BML-KI176; host or cells: bovine pancreas
T2 sequence (P00760 24-246): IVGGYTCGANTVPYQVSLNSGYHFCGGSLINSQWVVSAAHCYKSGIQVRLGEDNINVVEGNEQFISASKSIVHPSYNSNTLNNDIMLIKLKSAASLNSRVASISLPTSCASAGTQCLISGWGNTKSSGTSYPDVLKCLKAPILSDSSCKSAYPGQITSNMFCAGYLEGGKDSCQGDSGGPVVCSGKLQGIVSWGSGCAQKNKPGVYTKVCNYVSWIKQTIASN
Description: FIG. 2 is a graph showing that trypsin treatment releases fluorescent AMC from Ac-Lys-AMC but not Ac-Lys(Succinyl)-AMC. Samples (100 μl) of 1 μM Ac-Lys-AMC and 1 μM Ac-Lys(Succinyl)-AMC in a buffered solution (50 mM Tris/HCl, pH 8.0, 137 mM NaCl, 2.7 mM KCl, 1 mM MgCl2) were treated with bovine pancreatic trypsin (2 mg/ml) for the indicated times at room temperature. Samples were in the wells of a 96-well, ½-area white microplate and fluorescence was measured at 1 min. intervals at the excitation and emission wavelengths for free AMC (Excitation: 360 nm; Emission: 460 nm) in a Synergy 2 microplate reading fluorimeter (BioTek), Gain 40. The data points at 0 min. represent the fluorescence of equivalent 1 μM Ac-Lys(Succ.)-AMC and 1 μM Ac-Lys-AMC samples in the absence of trypsin.
As noted in the Background of the Invention section above, the protease trypsin catalyzes the hydrolytic cleavage of amide bonds on the carboxyl side of unmodified lysine residues. Hydrolytic cleavage of lysyl amide bonds with AMC or rhodamine 110 (dye components of Compounds 1 and 2, respectively) releases the free amino forms of the dyes. This elicits an upward shift of the dye's fluorescence emission peak wavelength (bathochromic shift), for example to 460 nm for AMC or 530 nm for rhodamine 110. If succinylation of the ε-amino function of the lysine moieties in compounds such as 1 and 2 renders the amide bond between the carbonyl of lysine and the amino of dye groups such as AMC or rhodamine resistant to trypsin cleavage then, upon desuccinylation, the lysine/dye amide bond would become cleavable by trypsin. Note that removal of a single succinyl group from 2, followed by cleavage of the desuccinylated lysine would yield a compound with a single free amino function, Ac-K(Succ.)-R110. Monoamides of rhodamine 110 also have increased fluorescence emission at 530 nm relative to 2, although they are less fluorescent than rhodamine 110 itself (Liu et al., 1999). Thus, monitoring the fluorescence at the peak wavelength of the amino form of the dye would allow the desuccinylation reaction to be quantified. A schematic for such an assay is depicted for Compound 1 and SIRT5 in FIG. 1. Trypsin treatment (2 mg/ml) elicits an immediate increase in the fluorescence of a solution of Ac-Lys-AMC (Compound 6—FIG. 1) at the excitation and emission wavelengths of free AMC (Ex. 360 nm; Em. 460 nm), with maximum fluorescence achieved in 2 min. or less and ˜⅔ of that maximum occurring in 1 min. (FIG. 2).

[3] = test system: HeLa cell extracts; test: HeLa cell extract Ac-Lys(ε-succinyl)-AMC desuccinylation activity; type: biochemical, human; conditions: 50 μM substrate, 500 μM NAD^+, no inhibitor, 2 hr., 37° C.
Description: Enzyme and extract catalog products obtained from ENZO Life Sciences included: HDAC1 (Cat. # BML-SE456), HDAC2 (Cat. # BML-SE500), HDAC3 (Cat. # BML-SE507), HDAC3/NCOR1 Complex (Cat. # BML-SE515), HDAC6 (Cat. # BML-SE508), HDAC8 (Cat. # BML-SE145), HDAC10 (Cat. # BML-SE559), HDAC11 (Cat. # BML-SE560), SIRT1 (Cat. # BML-SE239), SIRT2 (Cat. # BML-SE251), SIRT3 (Cat. # BML-SE270), SIRT5 (Cat. # BML-SE555), HeLa Nuclear Extract (Cat. # BML-KI140), Trypsin (“Fluor de Lys Developer”, 80 mg/ml bovine trypsin in 1 mM HCl, Cat. # BML-KI105 or “Fluor de Lys Developer II”, 80 mg/ml bovine trypsin in 1 mM HCl, Cat. # BML-KI176). […] Enzymes obtained from BPS Bioscience, San Diego, Calif. included: human recombinants SIRT4 (Cat. #50015), SIRT6 (Cat. #50017), SIRT7 (Cat. #50018). HeLa whole cell extract was obtained from HeLa S3 cells (American Type Culture Collection) grown in a medium of MEM/10% fetal bovine serum (FBS) as follows: 1) 9×10^6 cells were suspended by trypsinization, followed by a phosphate buffered saline (PBS) rinse and addition of MEM/10% FBS (1.5 mL) to eliminate trypsin before transfer to a 15 mL conical tube; 2) cells were sedimented by a low speed centrifugation, gently resuspended in PBS and sedimented again and supernatant removed; 3) lysis was induced by resuspension in 0.8 mL 50 mM Tris/HCl, pH 8.0 with the non-denaturing detergent NP-40 (0.5%), placement on ice and brief vortexing every 5 min. for 30 min.; 4) 100 μl of a concentrated salt solution in the same buffer was added in order to bring the final buffer composition to 50 mM Tris/C1, pH 8.0, 137 mM NaCl, 2.7 mM KCl, 1 mM MgCl2, 0.5% NP-40; 5) particulate matter was cleared by centrifugation and the cleared lysate supernatant transferred to a 1.5 mL Eppendorf tube and stored on ice until use in activity assays.
Assays were performed at 37° C., according to the manufacturer's instructions for the “SIRT1 Fluorometric Drug Discovery Kit” from Enzo Life Sciences (ELS) (Cat. # BML-AK555), with exceptions described as follows. […]

Trypsin cleavage / change in fluorescence ([2]; listed as Ac-Lys(Succ.)-AMC) | Molecule | Km [1] [mM] | Trypsin cleavage / change in fluorescence [2] | Maximum fluorescence increase over 0 hr./NL [3]
 | Ac-Arg-His-Lys-Lys(ε-acetyl)-AMC (Ac-RHKK(Ac)-{AMC}; SMILES CC(=O)NCCCC[C@H](NC(=O)[C@H](CCCCN)NC(=O)[C@H](Cc1c[nH]cn1)NC(=O)[C@H](CCCNC(=N)N)NC(C)=O)C(=O)Nc1ccc2c(C)cc(=O)oc2c1) [Ac-RHKK(Ac)-AMC, p53 peptide fluorogenic deacetylase substrate, Cat. # BML-KI177, reference compound] | 8.9 |  | 
no change in fluorescence | CC(=O)N[C@@H](CCCCNC(=O)CCC(=O)O)C(=O)Nc1ccc2c(C)cc(=O)oc2c1 [Compound 1, N—(N^α-acetyl-L-Lysine(N^ε-succinyl))-AMC] |  | complete resistance to the trypsin cleavage | 22,000
